# pIC50: −log10 of the molar value.
# How the values were obtained:
# MCF-7 cancer cells = test: cytotoxic activity on MCF-7 cancer cells; assay type: cell-based; conditions: read-out: concentration leading to death of 50% of cells
# HeLa cancer cells = test: cytotoxic activity on HeLa cancer cells; assay type: cell-based; conditions: read-out: concentration leading to death of 50% of cells
# water solubility = assay type: physicochemical; conditions: in comparison with the aldehydic forms (1)
# [1] = storage stability of solutions and syrups; assay type: physicochemical; conditions: at room temperature; oleacein (1 g) in PEG200 or PEG 400 (5 ml)
# Procedure: Dried olive leaves of Kalamata variety (10 kg) with 1% moisture are cut in the presence of water (100 L) at 25° C. and left in contact for 30 min. The mixture is filtered and the aqueous phase is obtained. The aqueous solution is extracted with dichloromethane (80 L) and the dichloromethane layer is obtained and evaporated under vacuum at 30° C. The residue (100 g) is made up of oleacein with a purity of 95%. The oleacein is mixed with water (10 L) under vigorous stirring for 30 min and transformed into a pure oleaceinediol solution. Alternatively, oleacein (1 g) is mixed with PEG200 or PEG 400 (5 ml) and converted into the stable polyethylene glycol hemiacetal. This solution is stable at room temperature for 12 months. This solution can be diluted to 100 ml with a saturated sugar solution affording a syrup containing 1% oleaceinediol, stable for 15-30 days with anti-inflammatory use.
# Fresh olive leaves of Koroneiki variety (100 g) are left in contact with dichloromethane (500 g) at 25° C. for 30 min. The mixture is filtered and the organic phase is evaporated under vacuum. The residue is dissolved in deionized and distilled water at pH=6 (100 ml) under stirring for 24 hours, filtered and a solution of pure oleomissional is obtained. The solution is evaporated or lyophilized and oleomissional (160 mg) is obtained with a purity of >95%. […]
Substance,pIC50 (MCF-7 cancer cells),pIC50 (HeLa cancer cells),"water solubility with respect to substances (1), (2) (water solubility)",time stable [1] [months]
5S-(E)-oleaceinediol,5.30,5.30,greatly increased water solubility,–
5S-(E)-oleomissionadiol,4.30,4.30,greatly increased water solubility,–
polyethylene glycol hemiacetal of oleacein,–,–,–,12
